Measured values taken from ChEMBL document CHEMBL1157282, “Cytotoxic constituents from the stem bark of Dichapetalum gelonioides collected in the Philippines” (J Nat Prod, 2006).
≈ marks a conversion by molar mass, not a printed value.

Assays:
Lu1 = test: Cytotoxicity against human Lu1 cells; assay type: functional; conditions: read-out: ED50 (the source's name)
SW626 = test: Cytotoxicity against human SW626 cells; assay type: functional; conditions: read-out: ED50 (the source's name)
[1] = Cytotoxicity against HUVEC cells; assay type: cell-based; conditions: human, read-out: ED50 (the source's name)
LNCaP = test: Cytotoxicity against human LNCaP cells; assay type: functional; conditions: read-out: ED50 (the source's name)
MCF7 = test: Cytotoxicity against human MCF7 cells; assay type: functional; conditions: read-out: ED50 (the source's name)
KB [2] = test: Cytotoxicity against human KB cells; assay type: functional; conditions: read-out: ED50 (the source's name)
[3] = Cytotoxicity against human BC1 cells; assay type: functional; conditions: read-out: ED50 (the source's name)
Col2 = test: Cytotoxicity against human Col2 cells; assay type: functional; conditions: read-out: ED50 (the source's name)
KB [4] = test: Cytotoxicity against drug-resistant human KB cells in absence of vinblastine; assay type: functional; conditions: read-out: ED50 (the source's name)
SK-N-SH = test: Cytotoxicity against human SKNSH cells; assay type: functional; conditions: read-out: ED50 (the source's name)
KB [5] = test: Cytotoxicity against drug-resistant human KB cells in presence of vinblastine; assay type: functional; conditions: read-out: ED50 (the source's name)
[6] = Cytotoxicity against human MEL1 cells; assay type: functional; conditions: read-out: ED50 (the source's name)
[7] = Cytotoxicity against human MEL2 cells; assay type: functional; conditions: read-out: ED50 (the source's name)
L1210 = test: Cytotoxicity against mouse L1210 cells; assay type: functional

SMILES	EC50 (Lu1) [µg/mL]	EC50 (SW626) [µg/mL]	CC50 [1] [µg/mL]	EC50 (LNCaP) [µg/mL]	EC50 (MCF7) [µg/mL]	EC50 (KB [2]) [µg/mL]	EC50 [3] [µg/mL]	EC50 (Col2) [µg/mL]	EC50 (KB [4]) [µg/mL]	EC50 (SK-N-SH) [µg/mL]	EC50 (KB [5]) [µg/mL]	EC50 [6] [µg/mL]	EC50 [7] [µg/mL]	EC90 (L1210) [µg/mL]
COc1ccc([C@@H]2CC3=CC[C@]4(C)[C@H]5C=C[C@]67C[C@]6(CC[C@H]7[C@@H]6C[C@H](/C=C(\C)CO)OC6=O)[C@]5(C)[C@H](O)C[C@H]4[C@@]3(C)CO2)cc1 [DICHAPETALIN K]	1 (≈ 1.63 µM)	3 (≈ 4.88 µM)	2.2 (≈ 3.58 µM)	2.6 (≈ 4.23 µM)	1 (≈ 1.63 µM)									
CC1=C(O)C(=O)C[C@@H]2[C@@]3(C)CC[C@](C)(C(=O)O)C[C@@H]3CC[C@]12C	> 20	15.8 (≈ 49.3 µM)		10.8 (≈ 33.7 µM)		16.2 (≈ 50.6 µM)	12.2 (≈ 38.1 µM)	11.2 (≈ 35 µM)	> 20	10.4 (≈ 32.5 µM)	> 20			
C[C@H]1C(=O)CC[C@H]2[C@]3(C)CC[C@@]4(C)[C@@H]5CC(C)(C)CC[C@]5(CO)CC[C@]4(C)[C@H]3C[C@@H](O)[C@]12C	> 20	> 20		> 20		> 20	> 20	> 20	> 20	13 (≈ 28.3 µM)	> 20			
C/C(=C\[C@H]1C[C@@H]([C@@H]2CC[C@]34C[C@]23CC[C@@H]2[C@@]3(C)CC=C5C[C@@H](c6ccccc6)OC[C@]5(C)[C@@H]3C[C@@H](O)[C@]24C)C(=O)O1)CO [DICHAPETALIN L]	1 (≈ 1.7 µM)	8.3 (≈ 14.1 µM)	4.2 (≈ 7.16 µM)	1.1 (≈ 1.87 µM)	2.1 (≈ 3.58 µM)									
C[C@H]1C(=O)CC[C@H]2[C@]3(C)CC[C@@]4(C)[C@@H]5CC(C)(C)CC[C@]5(C)CC[C@]4(C)[C@H]3C[C@@H](O)[C@]12C [ZEYLANOL]	10.9 (≈ 24.6 µM)	> 20				> 20	> 20	> 20	> 20	16.8 (≈ 37.9 µM)	> 20			
C/C(=C\[C@H]1C[C@@H]([C@@H]2CC[C@]34C[C@]23[C@H](O)C[C@@H]2[C@@]3(C)CC=C5C[C@@H](c6ccccc6)OC[C@]5(C)[C@@H]3C[C@@H](O)[C@]24C)C(=O)O1)CO [DICHAPETALIN I]	7.6 (≈ 12.6 µM)	0.5 (≈ 0.829 µM)		> 20		16.6 (≈ 27.5 µM)	> 20	4.1 (≈ 6.8 µM)	> 20	9.9 (≈ 16.4 µM)	> 20			
C=C(C)[C@@H]1CC[C@]2(C(=O)O)CC[C@]3(C)[C@H](CC[C@@H]4[C@@]5(C)CC[C@H](O)C(C)(C)[C@@H]5CC[C@]43C)[C@@H]12 [BETULINIC ACID]	> 20	> 20		> 20		> 20	> 20	> 20	> 20	> 20	> 20	1.1 (≈ 2.41 µM)	2 (≈ 4.38 µM)	
C/C(=C\[C@H]1C[C@@H]([C@@H]2CC[C@]34C[C@]23C=C[C@@H]2[C@@]3(C)CC=C5C[C@@H](c6ccccc6)OC[C@]5(C)[C@@H]3C[C@@H](O)[C@]24C)C(=O)O1)CO [DICHAPETALIN A]	4.1 (≈ 7.01 µM)	0.2 (≈ 0.342 µM)	5.5 (≈ 9.4 µM)	7 (≈ 12 µM)	2.1 (≈ 3.59 µM)	3.6 (≈ 6.16 µM)	> 20	6.1 (≈ 10.4 µM)	> 20	6.9 (≈ 11.8 µM)	11.6			< 0.0001
C=C1C(=O)C(O)=C[C@@H]2[C@@]3(C)CC[C@](C)(C(=O)OC)C[C@@H]3CC[C@]12C	1.6 (≈ 4.81 µM)	1.6 (≈ 4.81 µM)		0.9 (≈ 2.71 µM)		0.7 (≈ 2.11 µM)	0.6 (≈ 1.8 µM)	0.8 (≈ 2.41 µM)	1.8 (≈ 5.41 µM)	0.8 (≈ 2.41 µM)	1.7			
COc1ccc([C@@H]2CC3=CC[C@]4(C)[C@H]5C[C@@H](O)[C@]67C[C@]6(CC[C@H]7[C@@H]6C[C@H](/C=C(\C)CO)OC6=O)[C@]5(C)[C@H](O)C[C@H]4[C@@]3(C)CO2)cc1 [DICHAPETALIN J]	14.5 (≈ 22.9 µM)	0.4 (≈ 0.632 µM)		16.4 (≈ 25.9 µM)		16.4 (≈ 25.9 µM)	> 20	2.1 (≈ 3.32 µM)	> 20	4 (≈ 6.32 µM)	> 20			
C=C1C(=O)C(O)=C[C@@H]2[C@@]3(C)CC[C@](C)(C(=O)O)C[C@@H]3CC[C@]12C	3.8 (≈ 11.9 µM)	5 (≈ 15.7 µM)		3.7 (≈ 11.6 µM)		3.7 (≈ 11.6 µM)	4 (≈ 12.6 µM)	2.7 (≈ 8.48 µM)	5 (≈ 15.7 µM)	9 (≈ 28.3 µM)	4.3			
